# In patent US20100256160A1, “METHOD OF ADMINISTERING AN ANTITUMOR COMPOUND” (NERVIANO MEDICAL SCIENCES S.R.L., priority 2006, published 2010):
# Tests used:
# Aurora kinases (AKs) A = biological target: T1, Aurora kinases (AKs) A (Homo sapiens, UniProt O14965); assay: Inhibitory potency towards Aurora kinase A; assay type: biochemical
# T1 sequence (O14965 1-403): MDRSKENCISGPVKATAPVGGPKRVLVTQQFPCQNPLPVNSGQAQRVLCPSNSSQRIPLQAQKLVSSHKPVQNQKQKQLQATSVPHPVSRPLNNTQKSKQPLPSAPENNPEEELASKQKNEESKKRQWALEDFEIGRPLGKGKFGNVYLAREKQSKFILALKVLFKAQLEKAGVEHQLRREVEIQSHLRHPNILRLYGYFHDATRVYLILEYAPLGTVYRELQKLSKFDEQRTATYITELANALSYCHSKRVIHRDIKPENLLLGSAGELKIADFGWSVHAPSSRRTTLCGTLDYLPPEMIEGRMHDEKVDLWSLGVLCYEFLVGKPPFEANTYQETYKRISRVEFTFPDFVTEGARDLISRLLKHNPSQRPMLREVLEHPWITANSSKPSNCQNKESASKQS
# Aurora kinases (AKs) B = Aurora kinases (AKs) B (Homo sapiens, UniProt Q96GD4); assay: Inhibitory potency towards Aurora kinase B; assay type: biochemical
# Chain of Aurora kinases (AKs) B (Q96GD4 whole entry): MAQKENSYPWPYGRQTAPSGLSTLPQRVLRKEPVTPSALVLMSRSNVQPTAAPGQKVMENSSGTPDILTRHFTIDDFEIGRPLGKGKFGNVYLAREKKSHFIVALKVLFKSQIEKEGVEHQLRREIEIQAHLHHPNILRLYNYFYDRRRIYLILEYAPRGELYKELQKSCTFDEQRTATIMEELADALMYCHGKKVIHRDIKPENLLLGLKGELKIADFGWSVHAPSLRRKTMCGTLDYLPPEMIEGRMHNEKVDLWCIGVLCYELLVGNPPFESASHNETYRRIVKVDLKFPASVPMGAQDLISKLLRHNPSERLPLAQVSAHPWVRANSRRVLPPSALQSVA
# Aurora kinases (AKs) C = biological target: T2, Aurora kinases (AKs) C (Homo sapiens, UniProt Q9UQB9); assay: Inhibitory potency towards Aurora kinase C; assay type: biochemical
# T2 sequence (Q9UQB9 1-309): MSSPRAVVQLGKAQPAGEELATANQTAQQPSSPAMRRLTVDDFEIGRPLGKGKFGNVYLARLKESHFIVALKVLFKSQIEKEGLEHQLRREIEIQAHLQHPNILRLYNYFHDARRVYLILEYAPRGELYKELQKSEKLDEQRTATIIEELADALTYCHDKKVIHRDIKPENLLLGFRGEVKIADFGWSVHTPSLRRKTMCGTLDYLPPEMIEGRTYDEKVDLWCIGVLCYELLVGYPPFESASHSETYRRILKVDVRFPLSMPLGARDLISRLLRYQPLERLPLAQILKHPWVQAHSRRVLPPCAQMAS
# [1] = tested on: patients with refractory or resistant solid tumours; assay: Phase I dose escalation trial, 24 hours iv infusion once every two weeks: toxicity and response; assay type: in vivo
# Method: (§1) A phase I pharmacological trial was carried out to investigate the iv administration of Compound 1 given in 24 hours infusion once every two weeks in patients with refractory or resistant solid tumours, including lung, colorectal, gastro-oesophageal, cervix, Ewing, renal, head and neck, mesothelioma and cancer of unknown primary.
# This was a dose escalation study. Cohorts of 3-6 patients were sequentially allotted to progressively higher dose levels (DL) of Compound 1 based on the number of dose limiting toxicities (DLTs) observed. As per protocol, definition of DLTs were grade (G) 4 neutropenia lasting >7 days, febrile neutropenia, neutropenic infection, any G3 or 4 non-hematological drug related toxicities during the first cycle of treatment.
# (§2) Forty patients were enrolled. Seven DLs were explored (45, 90, 180, 360, 500, 650 and 580 mg/m^2). […] Except one G3 diarrhea, pyrexia and fatigue in one patient each, all other drug related non-hematological adverse events were G1 or 2 (fatigue, anorexia, nausea, vomiting, and ejection fraction decreased). One DLT (neutropenic infection) in the 360 mg/m^2, 2 DLTs (neutropenic infection and febrile neutropenia) at DL 650 mg/m^2 and 2 DLTs at 580 mg/m^2 (G 3 liver enzyme increase and febrile neutropenia) were reported. The MTD has been exceeded at 650 and 580 mg/m^2.
# [2] = Pharmacokinetics in phase I trial, 24 hours iv infusion once every two weeks; assay type: in vivo, human; details: patients
# Method: as §1
# Neutropenia was the dose-limiting toxicity for Compound 1 and easily managed. […] Biomarker modulation occurred at ≧500 mg/m^2. […] The recommended dose for Phase II was 500 mg/m^2. Furthermore the protocol was amended to increase the dose up to 750 mg/m^2 with prophylactic treatment with G-CSF.
# [3] = tested on: histone H3 phosphorylation; assay: Histone H3 phosphorylation in skin biopsies of patients, phase I trial 24 hours infusion; assay type: in vivo, human; details: 24 h iv infusion
# Method: as §1, §2
# [4] = tested on: patients with advanced/metastatic solid tumors; assay: Two-center phase I dose escalation trial, 6-hours IV infusion weekly for 3 consecutive weeks in a 28-day cycle; assay type: in vivo
# Method: The infusion duration was selected to reduce the potential for Cmax related toxicities. Forty patients were treated with doses ranging from 45 to 400 mg/m^2. […] In order to define the recommended dose for phase II, 330 mg/m^2 dose level was investigated.
# [5] = tested on: patients with hematopoietic malignancies such as relapsed/refractory acute leukemia; assay: Phase I study, 3-hour intravenous infusion for three consecutive days every two weeks; assay type: in vivo, human; details: 100, 150, 210, and 280 mg/m^2/daily; ten patients
# Method: A phase I pharmacological study to investigate the iv administration of Compound 1 given in a 3-hour intravenous infusion for three consecutive days every two weeks in patients with hematopoietic malignancies such as relapsed/refractory acute leukemia. Ten patients have been enrolled in 4 dose levels (100, 150, 210, and 280 mg/m^2/daily). […] Dose escalation is still proceeding.
smiles,measurement,setting,value
"CO[C@@H](C(=O)N1Cc2n[nH]c(NC(=O)c3ccc(N4CCN(C)CC4)cc3)c2C1)c1ccccc1 [Compound 1, N-{5-[(2R)-2-methoxy-2-phenylethanoyl]-1,4,5,6-tetrahydropyrrolo[3,4-c]pyrazol-3-yl}-4-(4-methylpiperazin-1-yl)benzamide]",inhibitory potency towards Aurora kinase A,Aurora kinases (AKs) A,significant inhibitory potency
same,inhibitory potency towards Aurora kinase B,Aurora kinases (AKs) B,significant inhibitory potency
same,inhibitory potency towards Aurora kinase C,Aurora kinases (AKs) C,significant inhibitory potency
same,MTD (exceeded at 650 and 580 mg/m^2),[1]; 24 h iv infusion every two weeks,< 580 mg/m^2
same,number of pts with stable disease as best response,[1]; forty patients enrolled,Nine
same,recommended dose for Phase II,"[1]; human, in vivo, iv",500 mg/m^2
same,dose-limiting toxicity,"[1]; in vivo, iv",Neutropenia
same,"non-hematological drug related adverse events, severity","[1]; in vivo, iv",mild or moderate
same,number of stable-disease pts with response duration >6 months,[1]; of the nine pts with stable disease,3
same,clearance,"[2]; human, in vivo",5 to 7.5 mL/min/kg
same,half-life,"[2]; human, in vivo, read-out: terminal half-life",18 to 30 h
same,pharmacokinetic behavior,[2],dose-proportional and time-independent behavior
same,pharmacokinetic linearity and variability,[2],linear with low inter-individual variability
same,volume of distribution,[2],2-4 times total body water
same,dose at which inhibition of histone H3 phosphorylation (biomarker modulation) was evident,[3],≥ 500 mg/m^2
same,uncomplicated grade 3 neutropenia,[4]; 250 mg/m^2,frequently reported
same,drug-related deaths,[4]; 45 to 400 mg/m^2,No drug-related deaths
same,hematological toxicity reported,"[4]; 45 to 400 mg/m^2, 6-hours IV infusion days 1, 8, 15 every 28 days",Uncomplicated neutropenia of short duration
same,"drug-related non hematological toxicities, severity","[4]; G1/G2 diarrhea, nausea, vomiting, fatigue, anorexia and blood pressure increase",mild or moderate
same,number of patients with stable disease as best response,[4]; forty patients treated,Seven
same,number of stable-disease patients with response lasting more than seven months,[4]; of the seven patients with stable disease,four
same,tolerability of regimen,[5],well tolerated
